{"source": "patent US8778889B2", "about": "“Antimicrobial decapeptide oral hygiene treatment” (The United States of America as represented by the …, priority 2003, dated 2014)", "key": {"[1]": {"test_system": "MRSA ATCC #43300", "type": "cell-based, Staphylococcus aureus", "text": "(§1) As shown in the table below, many drug-resistant pathogens including multidrug-resistant Acinetobacter baumannii (clinical isolates) were susceptible to the bactericidal activity of the newly developed antimicrobial peptides. […] This is shown by their lower MIC and MBC against a number of antibiotic-resistant bacteria including methicillin-resistant Staphylococcus aureus, vancomycin-resistant Enterococci, and multidrug-resistant Acinetobacter baumannii. Many of these resistant strains are involved in nosocomial infections, which affect the immunocompromised and the elderly individuals with weakened defenses. The tests were done in a broth microdilution assay as described in our earlier publication (Concannon et al., 2003)."}, "[2]": {"test_system": "MRSA WRAMC #12", "type": "cell-based, Staphylococcus aureus", "text": "as §1"}, "[3]": {"test_system": "MRSA ATCC #33591", "type": "cell-based, Staphylococcus aureus", "text": "as §1"}, "[4]": {"test_system": "MRSA VVRAMC #10", "type": "cell-based, Staphylococcus aureus", "text": "as §1"}, "[5]": {"test_system": "MRSA WRAMC #9", "type": "cell-based, Staphylococcus aureus", "text": "as §1"}, "[6]": {"test_system": "MRSA VVRAMC #1", "type": "cell-based, Staphylococcus aureus", "text": "as §1"}, "[7]": {"test_system": "biofilms grown on saliva-coated HA surfaces", "assay": "Live/Dead BacLight staining with confocal laser scanning microscopy of treated biofilms", "type": "cell-based, human salivary bacteria", "details": "66 h-old biofilms; KSL 200 μg/ml, Bzl 0.001%, CHX 0.12%", "procedure": "(A) Effect of KSL on intact versus disrupted 45 h biofilms formed on saliva-coated HA disks by salivary bacteria using the in vitro plaque assay. A Mann-Whitney test was used for comparison of log reductions in CFU between the experimental groups (KSL-treated intact or disrupted biofilms) with the control groups (dH2O-treated intact or disrupted biofilms). The single asterisk represents a statistically significant difference between KSL and dH2O-treated intact biofilms (p<0.05). Likewise, double asterisks represent a statistically significant difference between KSL and dH2O-treated disrupted biofilms (p<0.01). […] (B) Effect of benzalkonium chloride in promoting the bactericidal activity of KSL against 66 h-old intact oral biofilms formed on saliva-coated HA disks using the in vitro plaque system. A Kruskal-Wallis test was used to compare log reductions in CFU among various treatment groups including the control group (dH2O-treated). The single asterisk represents a statistically significant difference between the combined treatment of KSL and benzalkonium chloride (Bzl) and dH2O (p<0.001), KSL (p<0.01), or Bzl (p<0.01)-treated intact biofilms. Double asterisks represent a statistically significant difference between CHX and dH2O (p<0.001) or Bzl (P<0.05)-treated intact biofilms. […] No significant difference in viability counts was observed between CHX-treated versus the combined use of KSL and Bzl. For (A) and (B), the data represent the determinations of one of three separate experiments, each performed in quadruplicate. Bars represent standard deviations. (C) Confocal images of control and treated biofilms grown on saliva-coated HA surfaces. Live/Dead BacLight™ Viability kit (Molecular Probes, Eugene, Oreg.) was used to assess the viability of biofilm cells exposed to different treatments. […] An excitation wavelength of 488 nm was used and the fluorescence light emitted was collected by two separate emission filters, 500-530 nm (SYTO 9, live), and 650-710 nm (propidium iodide, dead). […]"}, "[8]": {"test_system": "A. baumannii WRAMC #5", "type": "cell-based, Acinetobacter baumannii", "text": "as §1"}, "[9]": {"test_system": "A. baumannii WRAMC #8", "type": "cell-based, Acinetobacter baumannii", "text": "as §1"}, "[10]": {"test_system": "A. baumannii WRAMC #13", "type": "cell-based, Acinetobacter baumannii", "text": "as §1"}, "[11]": {"test_system": "A. baumannii WRAMC #14", "type": "cell-based, Acinetobacter baumannii", "text": "as §1"}, "[12]": {"test_system": "oral biofilms formed by salivary bacteria on saliva-conditioned Ge surfaces", "assay": "Dual flow cell oral biofilm development (DIC microscopy)", "type": "cell-based, human salivary bacteria", "text": "The dual flow cell system used in this study was modified from the chemostat flow cells of Herles et al. (Herles et al., 1994) and constructed according to our design and specifications by BioSurface Technologies (Bozeman, Mont.) (FIG. 1). The flow cell consisted of two compartments, each containing a polycarbonate flow chamber with three recesses to hold the Ge disks (10 mm in diameter and 1.8 mm in thickness) upon which biofilms were formed. Ge disks provided reflective surfaces that allowed the visualization of unstained biofilms using differential interference contrast (DIC) microscopy.\nTo form biofilms, Ge disks (Mindrum, Rancho Cucamonga, Calif.) in the dual flow cell were conditioned for one hour with sterile 50% human whole saliva. Isolated salivary bacteria, adjusted to approximately 1.0×10^7 cells/ml in 50% saliva (total, 1.5 ml), were injected into the flow chambers. After two hours of initial adherence of bacteria onto disk surfaces, the flow of culture medium (20% Todd-Hewitt broth) was started at a rate of 0.2 ml/min (Foster et al., 2004). The flow rate employed generated a shear rate of approximately 9.65 s^−1 on the substrate surface, and is compatible with the fluid flow in the oral cavity (Bakker et al., 2003).\nTo evaluate the effects of KSL in controlling the development and maturation of oral biofilms, surface adhered cells (after initial colonization) were perfused continuously with KSL-free or KSL-containing media (KSL at 10 or 50 μg/ml). Alternatively, biofilms at different stages of maturation (i.e., 4, or 6 h after inoculation) were pulse-treated using an injection pump at 0.2 ml/min with 50 μg/ml KSL in 20% THB or the control medium for 30 min at 2 hr intervals. Direct comparison of the effects of antimicrobials on the growth of biofilms between treated versus untreated was made in real-time by DIC microscopy."}}, "note": "Ends that are not written are not given here.", "data": [{"substance": "KKVVFKVKFK-NH2 [KSL, Lys-Lys-Val-Val-Phe-Lys-Val-Lys-Phe-Lys-NH2]", "values": [{"measurement": "MBC", "setting": "[1]", "result": 200, "unit": "µg/mL"}, {"measurement": "MIC", "setting": "[1]", "result": 100, "unit": "µg/mL"}, {"measurement": "MBC", "setting": "[2]", "result": ">200", "unit": "µg/mL"}, {"measurement": "MIC", "setting": "[2]", "result": ">200", "unit": "µg/mL"}, {"measurement": "MBC", "setting": "[3]", "result": ">200", "unit": "µg/mL"}, {"measurement": "MIC", "setting": "[3]", "result": 200, "unit": "µg/mL"}, {"measurement": "MBC", "setting": "[4]", "result": ">200", "unit": "µg/mL"}, {"measurement": "MIC", "setting": "[4]", "result": ">200", "unit": "µg/mL"}, {"measurement": "MBC", "setting": "[5]", "result": ">200", "unit": "µg/mL"}, {"measurement": "MIC", "setting": "[5]", "result": ">200", "unit": "µg/mL"}, {"measurement": "MBC", "setting": "[6]", "result": ">200", "unit": "µg/mL"}, {"measurement": "MIC", "setting": "[6]", "result": ">200", "unit": "µg/mL"}, {"measurement": "viability of biofilm cells by live/dead staining", "setting": "[7]", "result": "less impact on the viability of biofilm cells"}, {"measurement": "MBC", "setting": "[8]", "result": 50, "unit": "µg/mL"}, {"measurement": "MBC", "setting": "[9]", "result": 100, "unit": "µg/mL"}, {"measurement": "MBC", "setting": "[10]", "result": 200, "unit": "µg/mL"}, {"measurement": "MIC", "setting": "[10]", "result": 50, "unit": "µg/mL"}, {"measurement": "MBC", "setting": "[11]", "result": 100, "unit": "µg/mL"}, {"measurement": "effect on oral biofilm development", "setting": "[12]; continuous perfusion, KSL at 10 μg/ml", "result": "partially effective in inhibiting biofilm formation"}, {"measurement": "effect on oral biofilm development", "setting": "[12]; continuous perfusion, KSL at 50 μg/ml", "result": "disrupted biofilm development"}, {"measurement": "effect on oral biofilm development", "setting": "[12]; pulsed treatment (30 min every 2 h, 50 μg/ml) starting 4 h after inoculation", "result": "inhibited biofilm formation"}, {"measurement": "effect on oral biofilm development", "setting": "[12]; pulsed treatment (30 min every 2 h, 50 μg/ml) starting 6 h after inoculation", "result": "failed to inhibit the development of biofilm structures"}]}]}
